{"source": "patent US20250064799A1", "about": "“ORAL FORMULATIONS OF LEVOSIMENDAN FOR TREATING PULMONARY HYPERTENSION WITH HEART FAILURE WITH PRESERVED EJECTION FRACTION” (Tenax Therapeutics, Inc., priority 2021, published 2025)", "type_in_all_cases": "in vivo, human", "key": {"patients with PH-HFpEF [1]": {"system": "patients with PH-HFpEF", "assay": "HELP Study (TNX-LVO-04), weekly I.V. levosimendan for 6 weeks", "set-up": "HELP (WK 6) 6MWT: unit not given here", "source_text": "(§1) The initial HELP Study is described in PCT International Application Publication No. WO 2021/126884 and Burkhoff, et al. (2021) “Levosimendan improves hemodynamics and exercise tolerance in PH-HFpEF: results of the randomized placebo-controlled HELP trial,” the entire contents of each of which are incorporated by reference. […] Among the goals of the extension study was to determine the dose of oral levosimendan that could maintain the efficacy of the weekly I.V. infusions of levosimendan.\nPH-HFpEF is a progressive, fatal disease for which there are no approved therapies. All patients that the 6-week parent TNX-LVO-04 study (also referred to as the initial Help Study) underwent assessments of safety and efficacy in a double-blind randomized protocol. […] For these reasons, all participating patients were allowed to enter an open-label extension study (also referred to as TNX-LVO-05), to provide ongoing levosimendan therapy for two additional years. […]"}, "patients with PH-HFpEF [2]": {"system": "patients with PH-HFpEF", "assay": "Resting heart rate and systolic arterial blood pressure, I.V. to oral levosimendan transition study", "description": "(§2) Once that dose is determined, the study is identical with respect to the protocol. Since the I.V. formulation is weight based, and bypasses issues of bioavailability that may be affected by drug absorption, a dose escalation strategy is being adopted, guided by the individual patient response and any adverse events that may occur. Thus, the measurement of a six-minute walk test and patient questionnaire before and after the transition was to ensure that the patient continues to benefit. In addition, the monitoring of the patients' blood pressure and heart rate each day was to ensure that the oral dose remains safe.\n(§3) The following considerations justified amending the TNX-LVO-05 study protocol: • 1. The amended TNX-LVO-05 protocol included the same patients enrolled in the original study. This was not a new study of the patients currently enrolled. This was open label, with no blinding of patients or physicians, and no control group. • 2. The scope and purpose of the study was unchanged, with the exception that it offered the further extension of treatment allowed by the transition to oral therapy (See item #4). • 3. The amendment clearly delineated a stepwise and thoughtful titration of patients from their intravenous to oral levosimendan to ensure the safe and effective transition of their levosimendan regimen. • a. Patients were started on 1 mg daily, representing a dose generally less than half their total weekly weight-based dose regimen. • b. Patients were titrated based on tolerance to the daily levosimendan paying attention to their symptoms of PH-HFpEF, and special attention to specific adverse events of interest, heart rate and blood pressure. A daily diary captured patient vitals and symptoms to aid their physician in titrating patients at two-week intervals. • c. Patient response also was evaluated by clinical measures to provide the physician with additional information on the patient's response. • d. While most patients were expected to receive 2-3 mg daily at the conclusion of the transition study, the dose escalation strategy was included to allow all patients to realize the same benefit as they did from the I.V. formulation. • e. To document the sustained efficacy of the oral formulation in these patients, patients had to undergo a six-minute walk test and patient questionnaire prior to and at the end of the transition study. • 4. The transition to oral levosimendan allowed for extension of the study from its initial two years to an additional three years. This offers these PH-HFpEF patients, with no other treatments available, to continue on a drug that they have responded to. • 5. The amendment required patients to sign a revised informed consent to ensure patients are completely informed concerning the transition amendment. Patients that preferred to continue with their weekly 24-hour I.V. regimen were allowed to continue through the initial two-year period of the study and then will be withdrawn.\n(§4) Methods: Patients with PH-HFpEF who were in the open label extension study of the HELP Trial for more than 18 months volunteered to enroll in this transition protocol. Patients were initiated with 1 mg/day of oral levosimendan 5-7 days after the last IV levosimendan infusion. The oral dose was increased every 2 weeks by 1 mg/day to a maximum of 4 mg/day over an 8 week period. The highest daily dose was determined by the investigator based on clinical assessments of symptoms and side effects. The primary safety endpoints were change in resting heart rate and blood pressure from baseline to final study visit and all other adverse events. Secondary efficacy endpoints included change in six-minute walk distance (6MWD), serum brain natriuretic peptide (BNP) or NT-proBNP levels, and quality of life as assessed by Kansas City Cardiomyopathy Questionnaire clinical summary score (KCCQ-CS) and overall summary score (KCCQ-OS) from baseline to final study visit. […]"}, "patients with PH-HFpEF [3]": {"system": "patients with PH-HFpEF", "assay": "Adverse events, tolerability and final dose, I.V. to oral levosimendan transition study", "conditions": "for SAEs attributed/related to study drug: 6-8 week transition", "source_text": "as §3\nas §4, with “visit. All comparisons were the baseline and at week 6-8 measurements at the highest daily dose of levosimendan.” for “visit.”"}, "patients with PH-HFpEF [4]": {"system": "patients with PH-HFpEF", "assay": "Six-minute walk test (6MWT/6MWD), I.V. to oral levosimendan transition study (TNX-LVO-05 open label extension of HELP)", "source_text": "as §1, §2, §3\nMethods: Patients with PH-HFpEF who were in the open label extension study of the HELP Trial for more than 18 months volunteered to enroll in this transition protocol. Patients were initiated with 1 mg/day of oral levosimendan 5-7 days after the last IV levosimendan infusion. The oral dose was increased every 2 weeks by 1 mg/day to a maximum of 4 mg/day over an 8 week period. The highest daily dose was determined by the investigator based on clinical assessments of symptoms and side effects. […]"}, "[5]": {"conditions": "individual patients, Active arm of HELP Study, weekly I.V. levosimendan, week 6"}, "[6]": {"conditions": "baseline to final study visit (week 6-8), oral levosimendan 3-4 mg/day"}, "[7]": {"conditions": "individual patients transitioned from weekly I.V. to oral levosimendan"}}, "note": "Values joined by “and” are separate entries in the source; they are usually repeats but may differ in a detail not shown here. Equal entries are not always repeated. “Also recorded” adds a separate entry of the source."}
{"smiles": "C[C@@H]1CC(=O)NN=C1c1ccc(NN=C(C#N)C#N)cc1", "note": "[levosimendan]", "values": [{"measurement": "HELP (WK 6) 6MWT", "setting": "patients with PH-HFpEF [1]; [5]", "value": "311 and 397 and 270 and 218 and 232 and 401 and 196 and 482"}, {"measurement": "HELP (WK 6) HR", "setting": "patients with PH-HFpEF [1]; [5]", "value": "72 and 63 (2×) and 86 and 71 and 67 and 75 (2×)"}, {"measurement": "average improvement of 6-minute walk distance", "setting": "patients with PH-HFpEF [1]; levosimendan alone, PH-HFpEF patients", "value": "approximately 29 m"}, {"measurement": "effect on pulmonary vascular resistance", "setting": "patients with PH-HFpEF [1]; particularly upon chronic administration", "value": "did not decrease"}, {"measurement": "mean change in resting heart rate", "setting": "patients with PH-HFpEF [2]; [6]", "value": "4.9 (SD±7.5) beats/min"}, {"measurement": "mean change in systolic arterial blood pressure", "setting": "patients with PH-HFpEF [2]; [6]", "value": "4.1 (SD±12.6) mm Hg"}, {"measurement": "Heart Rate Change from Baseline to Week 6 Oral, Mean", "setting": "patients with PH-HFpEF [2]; n=18", "value": 6.9}, {"measurement": "Heart Rate Change from Baseline to Week 6 Oral, Median", "setting": "patients with PH-HFpEF [2]; n=18", "value": 5.5}, {"measurement": "Heart Rate Change from Baseline to Week 6 Oral, Minimum", "setting": "patients with PH-HFpEF [2]; n=18", "value": "−9"}, {"measurement": "SBP Change from baseline to Week 6 - Oral, Maximum", "setting": "patients with PH-HFpEF [2]; n=18", "value": 34}, {"measurement": "SBP Change from baseline to Week 6 - Oral, Mean", "setting": "patients with PH-HFpEF [2]; n=18", "value": 4.1}, {"measurement": "SBP Change from baseline to Week 6 - Oral, Median", "setting": "patients with PH-HFpEF [2]; n=18", "value": 1.5}, {"measurement": "SBP Change from baseline to Week 6 - Oral, Minimum", "setting": "patients with PH-HFpEF [2]; n=18", "value": "−15"}, {"measurement": "tolerability of transition to oral levosimendan", "setting": "patients with PH-HFpEF [3]; 6-8-week period, after >18 months of IV levosimendan", "value": "well tolerated without safety concerns"}, {"measurement": "other adverse events", "setting": "patients with PH-HFpEF [3]; 18 patients, oral levosimendan", "value": "No other adverse events"}, {"measurement": "serious adverse event not related to study drug", "setting": "patients with PH-HFpEF [3]; 18 patients, oral levosimendan, listed as study drug", "value": "One patient experienced a serious adverse event (SAE) unrelated to study drug; also recorded: One patient had a serious adverse event not related to the study drug"}, {"measurement": "SAEs attributed/related to study drug", "setting": "patients with PH-HFpEF [3]; oral levosimendan", "value": "no SAEs related"}, {"measurement": "SAEs attributed/related to study drug", "setting": "patients with PH-HFpEF [3]; oral levosimendan, listed as study drug", "value": "no SAEs were reported"}, {"measurement": "6MW Change (BL vs Week 6 only)", "setting": "patients with PH-HFpEF [4]; [7]", "value": "−137 and 78 and −27 and 118 and −10 and −4 and 5 and −9 and −8 and 9 and −17 and 40 and 30 (2×) and 15 and −1"}, {"measurement": "6MW Change (Baseline vs Week 6/8)", "setting": "patients with PH-HFpEF [4]; [7]", "value": "−15 and 78 and −27 and −10 and −31 and −4 and 24 and −23 and −112 and 9 and −17 and 30 (3×) and −1"}, {"measurement": "6MWD Change from baseline to Week 6 - Oral, Maximum", "setting": "patients with PH-HFpEF [4]; n=16", "value": 118}, {"measurement": "6MWD Change from baseline to Week 6 - Oral, Median", "setting": "patients with PH-HFpEF [4]; n=16", "value": 2.0}, {"measurement": "6MWD Change from baseline to Week 6 - Oral, Minimum", "setting": "patients with PH-HFpEF [4]; n=16", "value": "−137"}, {"measurement": "6MWD Week 6 - Oral, Maximum", "setting": "patients with PH-HFpEF [4]; n=16, oral levosimendan", "value": 550, "unit": "m"}, {"measurement": "6MWD Week 6 - Oral, Mean", "setting": "patients with PH-HFpEF [4]; n=16, oral levosimendan", "value": 302.0}, {"measurement": "6MWD Week 6 - Oral, Median", "setting": "patients with PH-HFpEF [4]; n=16, oral levosimendan", "value": 292.0}, {"measurement": "6MWD Week 6 - Oral, Minimum", "setting": "patients with PH-HFpEF [4]; n=16, oral levosimendan", "value": 91}, {"measurement": "mean change in 6MWD", "setting": "patients with PH-HFpEF [4]; n=17, baseline to final study visit, oral levosimendan", "value": "13.1 (SD±39.5) meters"}, {"measurement": "improvement in six minute walk distance", "setting": "patients with PH-HFpEF [4]; oral levosimendan compared to weekly I.V. infusion", "value": 32, "unit": "%"}]}
